Source: patent US12214036B2, “Combination therapy comprising AXL/MER and PD-1/PD-L1 inhibitors” (Incyte Corporation, priority 2020, dated 2025)
“Also recorded” adds a separate entry of the source.

Tested on: human PBMCs co-cultured with H1299 cells
Test: H1299 / PBMC co-culture cytokine assay
Assay type: cell-based
Settings: 4 days, stimulated PBMCs + H1299, FIG. 6
Protocol: The ability of Compound 1 to cooperate with checkpoint blockade to further boost antitumor responses was evaluated. H1299 lung cancer cells were co-cultured with stimulated human PBMCs treated with Compound 1, anti-human programmed cell death (PD)-1 antibody retifanlimab or the combination, and production of proinflammatory cytokines was assessed in two different experiments (FIG. 6).
H1299 cells were co-cultured with human PBMCs, each at 4 or 16×10^4 cells/mL in RPMI containing 10% FBS, 100 U/mL of penicillin-streptomycin (ThermoFisher Scientific; #15140-122) and 1× beta-mercaptoethanol (ThermoFisher Scientific; #21985-023). Compound 1 or retifanlimab were added as single agents or in combination to the cells. Anti-CD3 (BD Biosciences #555336), anti-CD28 (BD Biosciences #555725) or SEA (Toxin Technology, Sarasota, Fla.; #AT101red) were added at a final concentration of 1 μg/mL, 0.5 μg/mL or 100 ng/mL, respectively, to stimulate cell growth. Cultures were incubated at 37° C. in 5% CO2 incubator for 4 days. The supernatant was collected for cytokine analysis using a multiplex assay system (custom human ProcartaPlex Luminex kit, ThermoFisher Scientific; #PPX-15-MXRWE6P).

retifanlimab: humanized, IgG4 monoclonal antibody that binds to human PD-1; heavy chain SEQ ID NO:2, light chain SEQ ID NO:3
proinflammatory cytokine production: induced these cytokines in a subset of donors; also recorded: induction of proinflammatory cytokines
